Experimental data taken from ChEMBL document CHEMBL1127203, “Janus compounds: dual inhibitors of proteinases” (Bioorg Med Chem Lett, 1993).
Square brackets hold non-standard residues; d marks the D form. Peptide text beside a SMILES is read from it. * marks the point of attachment. ξ: configuration not given here. ξF = NC(Cc1ccccc1)C(=O)O; Boc = CC(C)(C)OC(=O)*; CF3 = FC(F)(F)*

Assays:
Neutrophil elastase = target: T1, Neutrophil elastase (Homo sapiens, UniProt P08246); assay: The compound was tested for its potency to inhibit human neutrophil elastase activity
T1 sequence (P08246 whole entry): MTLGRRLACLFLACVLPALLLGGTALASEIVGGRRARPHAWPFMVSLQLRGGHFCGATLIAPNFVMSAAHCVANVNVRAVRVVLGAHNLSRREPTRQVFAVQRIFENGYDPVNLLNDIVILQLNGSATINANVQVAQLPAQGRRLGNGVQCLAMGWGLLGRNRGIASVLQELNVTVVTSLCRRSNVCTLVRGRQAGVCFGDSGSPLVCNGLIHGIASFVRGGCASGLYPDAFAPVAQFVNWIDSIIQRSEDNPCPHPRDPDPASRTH

Cathepsin G = target: T2, Cathepsin G (Homo sapiens, UniProt P08311); assay: The compound was tested for its potency to inhibit human Cathepsin G
T2 sequence (P08311 whole entry): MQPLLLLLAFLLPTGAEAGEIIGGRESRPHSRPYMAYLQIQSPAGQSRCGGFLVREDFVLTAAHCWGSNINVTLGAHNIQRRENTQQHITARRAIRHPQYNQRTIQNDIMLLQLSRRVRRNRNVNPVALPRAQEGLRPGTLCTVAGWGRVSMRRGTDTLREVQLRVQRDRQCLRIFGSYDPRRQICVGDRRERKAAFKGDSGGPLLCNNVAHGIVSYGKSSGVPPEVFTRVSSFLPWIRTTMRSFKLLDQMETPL

Chymotrypsinogen A = Chymotrypsinogen A (Bos taurus, UniProt P00766); assay: The compound was tested for its potency to inhibit alpha-Chymotrypsin

| Ki (Neutrophil elastase) [nM] | Ki (Cathepsin G) [µM] | Ki (Chymotrypsinogen A) [nM] | Compound |
| --- | --- | --- | --- |
| 15.9 | 2.2 | – | CC(C)C(NC(=O)[C@@H]1CCCN1C(=O)[C@@H](NC(=O)c1ccc(C(=O)N[C@@H](C(=O)N2CCC[C@@H]2C(=O)NC(Cc2ccccc2)C(=O)C(F)(F)F)C(C)C)cc1)C(C)C)C(=O)C(F)(F)C(F)(F)F (some centres not stated) |
| 55 | – | – | CC(C)C(NC(=O)[C@@H]1CCCN1C(=O)[C@@H](NC(=O)OC(C)(C)C)C(C)C)C(=O)C(F)(F)C(F)(F)F (some centres not stated) |
| 4 | > 1000 | 1200 | CC(C)C(NC(=O)[C@@H]1CCCN1C(=O)[C@@H](NC(=O)c1ccc(C(=O)NC(Cc2ccccc2)C(=O)C(F)(F)F)cc1)C(C)C)C(=O)C(F)(F)C(F)(F)F (some centres not stated) |
| – | 1.7 | – | CC(C)[C@H](NC(=O)OC(C)(C)C)C(=O)N1CCC[C@H]1C(=O)NC(Cc1ccccc1)C(=O)C(F)(F)F (stereo partly drawn) (Boc-Val-Pro-[ξF]-CF3) |
